Data on ten molecules can be found in patent publication US6445486B1, “Electroactive materials and beneficial agents having a solubilizing moiety” (Gentex Corporation, priority 1999, dated 2002).

≈ marks a conversion by molar mass, not a printed value.

A short description of the first data set: Solubility at saturation in the solvent of interest, calculated from UV-VIS spectra of saturated solutions. Particulars: propylene carbonate, organic solvent or mixture, thermodynamic from solid.
By solubility is commonly meant the concentration that dissolves in the medium under given conditions. Regarding `c1ccc(N2c3ccccc3N(CCN3CCCCC3)c3ccccc32)cc1` [5-Phenyl-10-(2-piperidin-1-yl-ethyl)-5,10-dihydrophenazine, reference compound], the solubility is 5 mM (≈ 1850 µg/mL).

Consider `CC[N+](CC)(CC)CCCCn1c(=NN=c2sc3ccccc3n2C)sc2ccccc21.F[B-](F)(F)F` [triethyl-(4-{2-[(3-methyl-3H-benzothiazol-2-ylidene)-hydrazono]-benzothiazol-3-yl}-butyl)-ammonium tetrafluoroborate], for which the solubility was 47 mM.

With `CCn1c(=NN=c2sc3ccccc3n2CC)sc2ccccc21` [N,N′-Bis-(3-ethyl-3H-benzothiazol-2-ylidene)-hydrazine, reference compound], the solubility was 12 mM (≈ 4250 µg/mL).

For `Cc1ccc2c(c1)N(C)c1ccc(C)cc1N2C` [2,5,7,10-Tetramethyl-5,10-dihydrophenazine, reference compound], the solubility was 55 mM (≈ 13100 µg/mL).

For the molecule `CN1c2ccccc2N(C)c2ccccc21` [5,10-Dihydro-5,10-dimethylphenazine, reference compound], the solubility was 110 mM (≈ 23100 µg/mL).

The same data set, now with this note: saturated solution in propylene carbonate; ambient temperature.
For `F[B-](F)(F)F.F[B-](F)(F)F.N#Cc1ccc(-[n+]2ccc(-c3cc[n+](CCC[c-]4cccc4)cc3)cc2)cc1.[Fe+2].c1cc[cH-]c1` [Ferrocenepropyl-p-cyanophenylviologen tetrafluoroborate], the “Solubility in propylene carbonate” value is 276.0 mM.

Take `CC[N+](CC)(CC)CCN1c2ccc(C)cc2N(CC[N+](CC)(CC)CC)c2ccc(C)cc21.F[B-](F)(F)F.F[B-](F)(F)F` [2,7-Dimethyl-5,10-bis-2-(triethylammonium)ethylphenazine [BF4]2]: the “Solubility in propylene carbonate” value is on record as 250 mM.

In the case of `CC[N+](CC)(CC)CCN1c2ccccc2N(CC[N+](CC)(CC)CC)c2ccccc21.F[B-](F)(F)F.F[B-](F)(F)F` [5,10-Bis-2-(triethylammonium)ethylphenazine [BF4]2], the “Solubility in propylene carbonate” value is listed as 200 mM.

As for “1-Triethylammonium-6-(tetra-t-butylferrocenyl)hexane BF4”, the “Solubility in propylene carbonate” value was 514.4 mM.

A further data set can be described thus: physchem. Conditions: organic solvent or mixture, thermodynamic from solid.
As for `C[N+]1(CCN2c3ccccc3N(c3ccccc3)c3ccccc32)CCCCC1.F[P-](F)(F)(F)(F)F` [1-Methyl-1-[2-(10-phenyl-10H-phenazin-5-yl)-ethyl]-piperidinium hexafluorophosphate], the solubility was 500 mM.
